According to patent EP4043466B1, “PRC2 INHIBITORS” (Mirati Therapeutics, Inc., priority 2018, dated 2019):

What was measured:
Karpas 422 cells = assay: Karpas 422 cell viability, CTG (Cell Titre Glo) assay; assay type: cell-based, human; conditions: Inhibition of proliferation of Karpas 422 cells (EZH2 Y641N), viability measured Day 4, Day 7 or Day 11, time point of the tabulated values not stated
How it was run: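 CellTiter-Glo viability IC50s taken at Day 4, Day 7 and Day 11 of continuous compound exposure (3-fold series, 10µM top, 1.5nM lowest) in RPMI/20% FBS at 37 °C. Y641N-mutant EZH2 lymphoma line seeded at 1000 cells per well; medium and compound replaced on Day 7 for Day 11 read.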

[1] = molecular target: purified human, His-tagged PRC2 complex (Homo sapiens, UniProt O75530+Q15910); assay: Hot Spot HMT assay: inhibition of PRC2 enzymatic activity (transfer of tritiated methyl from SAM to core histone, filter binding); assay type: biochemical; conditions: Inhibition of PRC2-mediated enzymatic activity; 10 nM PRC2 complex, 0.05 mg/ml core histone H3, 1 uM 3H-SAM, 1 hr at 30°C
How it was run: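 Serial compound dilutions starting at 1.0 µM were pre-incubated 20 min at 30°C with 10 nM complex (His-EZH2, Flag-EED, His-SUZ12, His-AEBP2, His-RbAp48) and 0.05 mg/ml core H3. Reaction ran 1 hr at 30°C after adding 1 uM [3H]-SAM; scintillation counting followed filtration.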

[2] = tested on: PRC2-mediated histone H3 methylation; assay: Tri-Methyl Histone H3 (Lys 27) Sandwich ELISA in Pfeiffer cells: inhibition of PRC2-mediated histone H3 methylation; assay type: cell-based, human; conditions: Inhibition of EZH2-mediated histone H3 trimethylation, Pfeiffer cells (EZH2 A677G), 96 hours incubation
How it was run: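 Pfeiffer DLBCL cells (EZH2 A677G mutant) treated with 3-fold serial dilutions, 1µM to 0.15 nM final, for 96 hours at 37°C. Acid (0.4M HCl) histone extracts, neutralized, assayed by H3K27me3 sandwich ELISA with HRP/TMB read at 450 nm.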

purified human, His-tagged PRC2 complex, sequence (Q15910 whole entry): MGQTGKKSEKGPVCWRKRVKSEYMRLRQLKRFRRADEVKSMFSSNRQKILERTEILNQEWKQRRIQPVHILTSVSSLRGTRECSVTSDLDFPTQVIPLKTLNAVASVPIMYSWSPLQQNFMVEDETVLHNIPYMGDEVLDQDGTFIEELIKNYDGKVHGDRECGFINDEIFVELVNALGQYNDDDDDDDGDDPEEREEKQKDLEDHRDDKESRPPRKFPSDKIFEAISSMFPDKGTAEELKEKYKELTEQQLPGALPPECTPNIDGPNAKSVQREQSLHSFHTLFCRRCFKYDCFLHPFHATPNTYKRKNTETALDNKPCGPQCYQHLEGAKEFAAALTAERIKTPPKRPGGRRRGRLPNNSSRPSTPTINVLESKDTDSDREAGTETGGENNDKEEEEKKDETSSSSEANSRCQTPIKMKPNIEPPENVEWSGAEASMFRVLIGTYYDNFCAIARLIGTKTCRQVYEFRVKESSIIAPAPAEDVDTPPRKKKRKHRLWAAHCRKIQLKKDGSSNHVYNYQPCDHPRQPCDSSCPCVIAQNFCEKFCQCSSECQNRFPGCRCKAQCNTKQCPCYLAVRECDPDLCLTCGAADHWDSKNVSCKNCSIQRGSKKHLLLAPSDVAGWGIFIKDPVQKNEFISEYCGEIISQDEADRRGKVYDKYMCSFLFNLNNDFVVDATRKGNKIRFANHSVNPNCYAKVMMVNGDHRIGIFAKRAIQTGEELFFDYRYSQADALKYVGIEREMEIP
purified human, His-tagged PRC2 complex, sequence (O75530 whole entry): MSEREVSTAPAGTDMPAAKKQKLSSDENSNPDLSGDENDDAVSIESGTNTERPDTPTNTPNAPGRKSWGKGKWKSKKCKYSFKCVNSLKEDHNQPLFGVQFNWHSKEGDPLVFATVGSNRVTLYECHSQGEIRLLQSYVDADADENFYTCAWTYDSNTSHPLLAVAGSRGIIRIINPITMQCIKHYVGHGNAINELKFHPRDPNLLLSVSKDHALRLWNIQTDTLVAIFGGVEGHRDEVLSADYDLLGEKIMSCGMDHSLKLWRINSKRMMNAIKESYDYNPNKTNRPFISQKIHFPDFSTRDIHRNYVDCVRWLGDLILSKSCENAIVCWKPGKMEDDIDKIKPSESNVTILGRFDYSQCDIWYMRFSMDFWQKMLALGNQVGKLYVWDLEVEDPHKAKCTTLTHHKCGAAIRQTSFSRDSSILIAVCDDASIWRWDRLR
purified human, His-tagged PRC2 complex, sequence (Q15022 whole entry partner): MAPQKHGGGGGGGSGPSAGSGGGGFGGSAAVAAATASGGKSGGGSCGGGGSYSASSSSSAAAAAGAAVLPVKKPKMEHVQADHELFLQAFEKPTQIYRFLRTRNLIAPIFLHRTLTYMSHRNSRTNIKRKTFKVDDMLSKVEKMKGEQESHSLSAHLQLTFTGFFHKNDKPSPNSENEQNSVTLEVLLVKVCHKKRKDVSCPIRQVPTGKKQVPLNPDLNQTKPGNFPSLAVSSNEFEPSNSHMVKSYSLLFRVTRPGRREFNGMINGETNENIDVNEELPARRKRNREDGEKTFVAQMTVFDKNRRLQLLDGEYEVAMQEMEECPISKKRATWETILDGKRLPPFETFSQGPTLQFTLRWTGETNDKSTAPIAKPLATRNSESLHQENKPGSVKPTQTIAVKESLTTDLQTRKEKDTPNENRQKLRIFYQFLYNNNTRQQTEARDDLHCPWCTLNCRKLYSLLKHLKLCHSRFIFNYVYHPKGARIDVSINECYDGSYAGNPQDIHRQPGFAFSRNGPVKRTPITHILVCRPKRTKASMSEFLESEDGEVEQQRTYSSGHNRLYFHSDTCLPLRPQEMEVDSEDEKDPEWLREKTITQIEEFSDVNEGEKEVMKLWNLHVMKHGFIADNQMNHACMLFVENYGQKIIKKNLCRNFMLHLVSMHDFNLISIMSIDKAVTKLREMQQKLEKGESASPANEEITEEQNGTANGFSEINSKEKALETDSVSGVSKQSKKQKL
purified human, His-tagged PRC2 complex, sequence (Q6ZN18 whole entry partner): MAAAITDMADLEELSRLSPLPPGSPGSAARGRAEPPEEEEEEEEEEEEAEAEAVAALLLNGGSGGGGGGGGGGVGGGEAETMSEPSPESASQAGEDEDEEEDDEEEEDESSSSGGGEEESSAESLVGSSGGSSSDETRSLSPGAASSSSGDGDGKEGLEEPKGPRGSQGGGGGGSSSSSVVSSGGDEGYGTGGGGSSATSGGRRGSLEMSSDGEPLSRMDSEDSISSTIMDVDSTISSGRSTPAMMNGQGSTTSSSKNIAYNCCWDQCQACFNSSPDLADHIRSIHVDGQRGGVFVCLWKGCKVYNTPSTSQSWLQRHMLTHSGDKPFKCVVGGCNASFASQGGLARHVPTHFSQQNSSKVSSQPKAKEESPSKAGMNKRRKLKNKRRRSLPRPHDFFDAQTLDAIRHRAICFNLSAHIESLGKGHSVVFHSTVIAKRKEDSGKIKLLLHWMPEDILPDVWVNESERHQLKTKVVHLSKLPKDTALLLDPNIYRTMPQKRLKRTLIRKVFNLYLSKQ
purified human, His-tagged PRC2 complex, sequence (Q09028 whole entry partner): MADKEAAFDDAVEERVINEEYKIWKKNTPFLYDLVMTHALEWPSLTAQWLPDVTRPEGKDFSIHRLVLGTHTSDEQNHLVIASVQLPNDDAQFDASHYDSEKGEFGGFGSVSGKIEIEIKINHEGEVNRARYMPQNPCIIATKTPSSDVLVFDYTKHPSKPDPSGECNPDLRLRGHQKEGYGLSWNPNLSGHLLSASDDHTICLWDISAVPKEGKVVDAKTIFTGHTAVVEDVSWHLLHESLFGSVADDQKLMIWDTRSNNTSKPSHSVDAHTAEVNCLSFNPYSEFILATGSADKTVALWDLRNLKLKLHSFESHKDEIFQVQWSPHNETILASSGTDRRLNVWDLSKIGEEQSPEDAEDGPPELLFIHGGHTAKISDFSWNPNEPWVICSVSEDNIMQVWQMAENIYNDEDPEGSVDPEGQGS

Row | Molecule | IC50 (Karpas 422 cells; Homo sapiens) [nM] | IC50 [1] [nM] | IC50 ([2]; Homo sapiens) [nM] | IC50 (Karpas 422 cells) [nM] | IC50 [2] [nM]
1 | Cc1cc(S(=O)(=O)C(F)(F)F)ccc1-c1cnc(NCc2c(F)ccc3c2CCO3)n2cc(C#N)nc12 [Example 184, 5-(((5-fluoro-2,3-dihydrobenzofuran-4-yl)methyl)amino)-8-(2-methyl-4-((trifluoromethyl)sulfonyl)phenyl)imidazo[1,2-c]pyrimidine-2-carbonitrile] | 250 to 500 | 100 to 500 | 100 to 500 |  | 
2 | Cc1ncccc1-c1cnc(NCc2c(F)ccc3occc23)n2cc(C(=O)O)nc12 [Example 3, 5-(((5-fluorobenzofuran-4-yl)methyl)amino)-8-(2-methylpyridin-3-yl)imidazo[1,2-c]pyrimidine-2-carboxylic acid] | > 500 | 100 to 500 | > 500 |  | 
3 | N#Cc1cc(-c2cnc(NCc3c(F)ccc4c3CCO4)n3cc(C#N)nc23)ccn1 [Example 188, 8-(2-cyanopyridin-4-yl)-5-(((5-fluoro-2,3-dihydrobenzofuran-4-yl)methyl)amino)imidazo[1,2-c]pyrimidine-2-carbonitrile] | 250 to 500 | 100 to 500 | 100 to 500 |  | 
4 | N#Cc1cn2c(NCc3c(F)ccc4c3CCO4)ncc(-c3ccc(S(=O)(=O)C(F)(F)F)cc3)c2n1 [Example 82, 5-(((5-fluoro-2,3-dihydrobenzofuran-4-yl)methyl)amino)-8-(4-((trifluoromethyl)sulfonyl)phenyl)imidazo[1,2-c]pyrimidine-2-carbonitrile] | 250 to 500 | 100 to 500 | > 500 |  | 
5 | CN(C)c1ccc(-c2cnc(NCc3c(F)ccc4c3CCO4)n3cc(C#N)nc23)cn1 [Example 60, 8-(6-(dimethylamino)pyridin-3-yl)-5-(((5-fluoro-2,3-dihydrobenzofuran-4-yl)methyl)amino)imidazo[1,2-c]pyrimidine-2-carbonitrile] | 250 to 500 | 100 to 500 | > 500 |  | 
6 | COCCOc1ccc(-c2cnc(NCc3c(F)ccc4c3CCO4)n3cc(C#N)nc23)c(C)c1 [Example 206, 5-(((5-fluoro-2,3-dihydrobenzofuran-4-yl)methyl)amino)-8-(4-(2-methoxyethoxy)-2-methylphenyl)imidazo[1,2-c]pyrimidine-2-carbonitrile] | 250 to 500 | 100 to 500 | 100 to 500 |  | 
7 | N#Cc1cn2c(NCc3c(F)ccc4c3CCO4)ncc(-c3ccccn3)c2n1 [Example 146, 5-(((5-fluoro-2,3-dihydrobenzofuran-4-yl)methyl)amino)-8-(pyridin-2-yl)imidazo[1,2-c]pyrlmldlne-2-carbonltrlle] | ≤ 250 | 100 to 500 | 100 to 500 |  | 
8 | N#Cc1cn2c(NCc3c(F)ccc4c3CCO4)ncc(-c3ccc(C4CCN4)cc3)c2n1 (stereo not drawn) [Example 226, 8-(4-(azetidin-2-yl)phenyl)-5-(((5-fluoro-2,3-dihydrobenzofuran-4-yl)methyl)amino)imidazo[1,2-c]pyrimidine-2-carbonitrile] | ≤ 250 | 100 to 500 | 100 to 500 |  | 
9 | COC(=O)c1ccc(-c2cnc(NCc3c(F)ccc4c3CCO4)n3cc(C#N)nc23)cc1 [Example 167, methyl 4-(2-cyano-5-(((5-fluoro-2,3-dihydrobenzofuran-4-yl)methyl)amino)imidazo[1,2-c]pyrimidin-8-yl)benzoate] | ≤ 250 | 100 to 500 | > 500 |  | 

Next, values leading:

Row | IC50 (Karpas 422 cells; Homo sapiens) [nM] | IC50 [1] [nM] | IC50 ([2]; Homo sapiens) [nM] | IC50 (Karpas 422 cells) [nM] | IC50 [2] [nM] | Molecule
10 | 250 to 500 | < 100 | > 500 |  |  | COC(=O)c1ccc(-c2cnc(NCc3c(F)ccc4c3CCO4)n3cc(C#N)nc23)cn1 [Example 166, methyl 5-(2-cyano-5-(((5-fluoro-2,3-dihydrobenzofuran-4-yl)methyl)amino)imidazo[1,2-c]pyrimidin-8-yl)picolinate]
11 | ≤ 250 | 100 to 500 | ≤ 100 |  |  | CN1CCc2cc(-c3cnc(NCc4c(F)ccc5c4CCO5)n4cc(C#N)nc34)ccc2C1 [Example 159, 5-(((5-fluoro-2,3-dihydrobenzofuran-4-yl)methyl)amino)-8-(2-methyl-1,2,3,4-tetrahydroisoquinolin-6-yl)imidazo[1,2-c]pyrimidine-2-carbonitrile]
12 | ≤ 250 | < 100 | 100 to 500 |  |  | CN(C)Cc1ccc(-c2cnc(NCc3c(F)ccc4c3CCO4)n3cc(C#N)nc23)cc1C#N [Example 201, 8-(3-cyano-4-((dimethylamino)methyl)phenyl)-5-(((5-fluoro-2,3-dihydrobenzofuran-4-yl)methyl)amino)imidazo[1,2-c]pyrimidine-2-carbonitrile]
13 | ≤ 250 | < 100 | 100 to 500 |  |  | Cn1nc(C2CC2)cc1-c1cnc(NCc2c(F)ccc3c2CCO3)n2cc(C#N)nc12 [Example 144, 8-(3-cyclopropyl-1-methyl-1H-pyrazol-5-yl)-5-(((5-fluoro-2,3-dihydrobenzofuran-4-yl)methyl)amino)imidazo[1,2-c]pyrimidine-2-carbonitrile]
14 | > 500 | 100 to 500 | > 500 |  |  | Cn1cccc(-c2cnc(NCc3c(F)ccc4c3CCO4)n3cc(C#N)nc23)c1=O [Example 156, 5-(((5-fluoro-2,3-dihydrobenzofuran-4-yl)methyl)amino)-8-(1-methyl-2-oxo-1,2-dihydropyridin-3-yl)imidazo[1,2-c]pyrimidine-2-carbonitrile]
15 | ≤ 250 | 100 to 500 | 100 to 500 |  |  | CNCc1ccc(-c2cnc(NCc3c(F)ccc4c3CCO4)n3cc(C#N)nc23)c(C)c1 [Example 196, 5-(((5-fluoro-2,3-dihydrobenzofuran-4-yl)methyl)amino)-8-(2-methyl-4-((methylamino)methyl)phenyl)imidazo[1,2-c]pyrimidine-2-carbonitrile]
16 | ≤ 250 | < 100 | ≤ 100 |  |  | CN(C)C(=O)c1ccc(-c2cnc(NCc3c(F)ccc4c3CCO4)n3cc(C#N)nc23)c(Cl)c1 [Example 31, 3-chloro-4-(2-cyano-5-(((5-fluoro-2,3-dihydrobenzofuran-4-yl)methyl)amino)imidazo[1,2-c]pyrimidin-8-yl)-N,N-dimethylbenzamide]
17 |  | < 100 |  | ≤ 250 | 100 to 500 | 8-(4-((dimethylamino)methyl)phenyl)-5-(((5-fluoro-2,3-dihydrobenzofuran-4-yl)methyl-d2)amino)imidazo[1,2-c]pyrimidine-2-carbonitrile [Example 165]
18 | ≤ 250 | < 100 | ≤ 100 |  |  | CN1CCN(C(=O)c2cc(-c3cnc(NCc4c(F)ccc5c4CCO5)n4cc(C#N)nc34)n(C)n2)CC1 [Example 229, 5-(((5-fluoro-2,3-dihydrobenzofuran-4-yl)methyl)amino)-8-(1-methyl-3-(4-methylpiperazine-1-carbonyl)-1H-pyrazol-5-yl)imidazo[1,2-c]pyrimidine-2-carbonitrile]
19 | ≤ 250 | < 100 | ≤ 100 |  |  | N#Cc1cn2c(NCc3c(F)ccc4c3CCO4)ncc(-c3ccc(C4CC(=O)N4)cc3)c2n1 (stereo not drawn) [Example 222, 5-(((5-fluoro-2,3-dihydrobenzofuran-4-yl)methyl)amino)-8-(4-(4-oxoazetidin-2-yl)phenyl)imidazo[1,2-c]pyrimidine-2-carbonitrile]
20 | 250 to 500 | < 100 | 100 to 500 |  |  | N#Cc1cn2c(NCc3c(F)ccc4c3CCO4)ncc(-c3ccc(C4CCCO4)cc3)c2n1 (stereo not drawn) [Example 162, 5-(((5-fluoro-2,3-dihydrobenzofuran-4-yl)methyl)amino)-8-(4-(tetrahydrofuran-2-yl)phenyl)imidazo[1,2-c]pyrimidine-2-carbonitrile]
21 | ≤ 250 | < 100 | 100 to 500 |  |  | N#Cc1cn2c(NCc3c(F)ccc4c3CCO4)ncc(-c3ccc(C(=O)N4CCOCC4)cc3)c2n1 [Example 181, 5-(((5-fluoro-2,3-dihydrobenzofuran-4-yl)methyl)amino)-8-(4-(morpholine-4-carbonyl)phenyl)imidazo[1,2-c]pyrimidine-2-carbonitrile]
22 | ≤ 250 | < 100 | 100 to 500 |  |  | CNCc1ccc(-c2cnc(NCc3c(F)ccc4c3CCO4)n3cc(C#N)nc23)cc1F [Example 197, 5-(((5-fluoro-2,3-dihydrobenzofuran-4-yl)methyl)amino)-8-(3-fluoro-4-((methylamino)methyl)phenyl)imidazo[1,2-c]pyrimidine-2-carbonitrile]
23 | ≤ 250 | < 100 | ≤ 100 |  |  | CN(C)CCn1nccc1-c1cnc(NCc2c(F)ccc3c2CCO3)n2cc(C#N)nc12 [Example 230, 8-(1-(2-(dimethylamino)ethyl)-1H-pyrazol-5-yl)-5-(((5-fluoro-2,3-dihydrobenzofuran-4-yl)methyl)amino)imidazo[1,2-c]pyrimidine-2-carbonitrile]
